# In patent US20240147995A1, “INSECT NEUROPEPTIDES 5” (Solasta Bio Limited, priority 2022, published 2024):
# What was measured:
# Plutella xylostella = test: Leaf dip assay testing against Plutella xylostella (mortality); type: in vivo; settings: unformulated SB-P-70; FIG. 6, after 96 hours; compared to negative control vehicle and Chlorantraniliprole
# Procedure: The assay was carried out based on IRAC susceptibility test method 019 (https://irac-online.org/methods/aphids-adultnymphs/). Fill a small 4 cm wide 3 cm high dish with a 1% agar treatment solution of the active chemical or control (ensuring 1 cm gap between the agar and the lid) and leave to set. Dip a 2.5 cm leaf disc into 3 ml of treatment solution allowing the treatment to coat the leaf. Leave the disc to dry for 1 hour and place onto the set agar. Place insects (Plutella xylostella) onto each of the leaf discs. Each unit is sealed with a close-fitting, ventilated lid. Place the agar dishes in a small plastic tray lined with moist tissue paper and ensure the water trays in the bottom of the incubator are filled with clean water and place within the incubator. An assessment of mortality is made at 72, 96 and 120 hours. Leaf dip assays were performed with SB-P-70, and compared to a negative control vehicle and a current commercial insecticide Chlorantraniliprole. The activity of SB-P-70 is shown in FIG. 6; SB-P-70 has good activity whilst being eco-friendly and targeted to specific pests unlike broad spectrum chemical insecticides such as Chlorantraniliprole.
# Spodoptera frugiperda = test: Lepidoptera artificial diet assay against Spodoptera frugiperda (pupation and mortality); type: in vivo; settings: unformulated SB-P-70; 1×10^−4 M in diet; L1 larvae; FIG. 8, after 168 hours; compared to negative control vehicle and DDT
# Source text: Frontier Lepidoptera artificial diet was made up by preparing agar at 1% and then mixing it with artificial diet powder. Peptide solution was aliquoted in 10 cells and diet poured straight onto it. The final concentration of the peptide was 1×10^−4 M, and each peptide was aliquoted in 10 cells. Once the diet solidified and cooled down, one L1 larvae was infested in each cell. The trays were sealed with heat and let larva were allowed to develop for 168 hrs. Finally, pupation and mortality were scored for. Lepidoptera artificial diet assays were performed with SB-P-70, and compared to a negative control vehicle and the insecticide dichlorodiphenyltrichloroethane (DDT).
substance,measurement,setting,value
[Hy]-KVKFSAWG-[NH2] (H-KVKFSAWG-NH2) [SB-P-70],"activity against Plutella xylostella (mortality, leaf dip assay)",Plutella xylostella,good activity
same,"activity against Spodoptera frugiperda (pupation and mortality, artificial diet assay)",Spodoptera frugiperda,much higher activity
